The IC50 is the midpoint of a concentration-inhibition curve.

Experiment [1] has as its system amphetamine-induced symptoms (cage movement) in rats. As to the kind of experiment: Antagonism of amphetamine stereotypy in rats. The experiment is classed as in vivo, rat. The settings on record: for ED50: Rattus norvegicus; for ED50 (micrograms/kilograms) 1 Hr. / ED50 (mg./kg.) 1 Hr.: 60 min; for ED50 (micrograms/kilograms) 5 Hrs. / ED50 (mg./kg.) 5 Hrs.: 300 min; for ED50 (micrograms/kilograms) 24 Hrs. / ED50 (mg./kg.) 24 Hrs.: 1440 min; for ED50 (mg./kg.) 1 Hr. / ED50 (mg./kg.) 5 Hrs. / ED50 (mg./kg.) 24 Hrs. / ED50 (mg./kg.) 72 Hrs. / ED50 (mg./kg.) 48 Hrs.: Part D, enantiomers from Example 21; for ED50 (mg./kg.) 72 Hrs.: 4320 min; for ED50 (mg./kg.) 48 Hrs.: 2880 min. Here is the method:
Antagonism of Amphetamine Stereotypy in Rats Test Procedures and Results
The effects of the compounds of the present invention on prominent amphetamine-induced symptoms were studied in rats by a rating scale modeled after the one reported by Quinton and Halliwell, and Weissman. Groups of five rats were placed in a covered plastic cage measuring approximately 26 cm.×42 cm.×16 cm. […] They were then treated 1, 5 and 24 hrs. later with d-amphetamine sulfate, 5 mg./kg. intraperitoneally (i.p.). […] On the basis of dose-response data after amphetamine it was possible to determine the effective dose of the compound necessary to antagonize or block the characteristic amphetamine behavior of cage movement for fifty percent of the rats tested (ED50). The time of rating chosen coincides with the peak action of amphetamine which is 60-80 min. after treatment with this agent.
Employing the above-described procedure, the following 4a,9b-trans compounds were tested for their ability to block the behavior effects of amphetamine, the results being reported as the ED50 in mg./kg. at the indicated times: [drawing 31]
A. The following results were obtained on the mixture of diastereomers for those compounds wherein R contains a secondary alcohol group and on the single diastereomer of the other 4a, 9b-trans hexahydro-pyrido-indoles.
B. The results of tests in which compounds of the invention reported in Part A, above are compared with the corresponding δ-substituted-5-aryl-1,2,3,4-tetrahydropyrido[4,3-b]indoles of U.S. Pat. No. 4,001,263 are summarized below. For each pair the results obtained on the prior art compound (a) are given first and the results for the compound of the invention (b) are given second. Where indicated the test compound was also administered orally (p.o.) and tests were carried out for 48 hours.
C. Test results expressed as micrograms/kilograms, obtained on the diastereomers αβ and γδ separated in Example 13 and each of the enantiomers α, β, γ and δ resolved by the procedure of Example 14 are shown below. In each case the compounds are of the formula
The tests were carried out for 72 hours.

The target of a further experiment is dopamine receptors (Rattus norvegicus, UniProt P61169). As to the kind of experiment: Inhibition of 3H-spiroperidol binding to dopamine receptors. More on the design: species or system rat (Sprague-Dawley CD males). The settings on record: rat corpus striatum; 0.5 nM 3H-spiroperidol; 10 min at 37° C.; hydrochloride salts.
dopamine receptors, sequence (P61169 whole entry): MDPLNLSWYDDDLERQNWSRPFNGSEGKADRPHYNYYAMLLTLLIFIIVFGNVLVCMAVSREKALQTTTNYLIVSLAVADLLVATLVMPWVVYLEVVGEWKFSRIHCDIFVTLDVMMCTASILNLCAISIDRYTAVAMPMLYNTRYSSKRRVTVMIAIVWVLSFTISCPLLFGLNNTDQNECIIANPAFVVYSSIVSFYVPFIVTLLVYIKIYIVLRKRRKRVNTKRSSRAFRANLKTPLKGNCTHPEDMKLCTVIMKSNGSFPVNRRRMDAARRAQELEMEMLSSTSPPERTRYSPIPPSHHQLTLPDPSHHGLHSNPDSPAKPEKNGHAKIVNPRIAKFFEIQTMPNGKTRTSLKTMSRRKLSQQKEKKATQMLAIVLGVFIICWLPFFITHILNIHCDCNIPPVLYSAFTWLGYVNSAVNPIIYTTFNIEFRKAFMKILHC
[2] abbreviates: sc, 1 h, Part A, 1 hr, test compound s.c. (method), read-out: ED50 (mg./kg.) 1 Hr.
Setting [3] is: sc, 5 h, Part A, 5 hr, test compound s.c. (method), read-out: ED50 (mg./kg.) 5 Hr.
[4] abbreviates: sc, 24 h, Part A, 24 hrs, test compound s.c. (method), read-out: ED50 (mg./kg.) 24 Hrs.
The mark [5] stands for this setting: ip, 1 h, Part B, 1 hr, i.p., read-out: ED50 (mg./kg.) 1 Hr.
The mark [6] stands for this setting: ip, 5 h, Part B, 5 hrs, i.p., read-out: ED50 (mg./kg.) 5 Hrs.
The mark [7] stands for this setting: ip, 24 h, Part B, 24 hrs, i.p., read-out: ED50 (mg./kg.) 24 Hrs.
Setting [8] is: sc, 1 h, read-out: ED50 (mg./kg.) 1 Hr.
[9] abbreviates: sc, 5 h, read-out: ED50 (mg./kg.) 5 Hr.

Structures can show the parent of a compound that is named as a salt. Where two headings read alike, the source gives them in different places. Some results are limits rather than exact numbers.

Consider `COc1ccc(C(O)CCCN2CCC3C(C2)c2ccccc2N3c2ccccc2)cc1` (stereo not shown), for which the ED50 is 0.1 to 0.32 mg/kg in experiment [1] (setting [2]), 0.1 to 0.32 mg/kg in experiment [1] (setting [3]) and about 1 mg/kg in experiment [1] (setting [4]).

As to `OC(CCCN1CC[C@@H]2[C@@H](C1)c1ccccc1N2c1ccccc1)c1ccccc1` (relative stereo), the ED50 in experiment [1] (setting [5]) is 0.032 to 0.1 mg/kg; in experiment [1] (setting [6]) it was 0.032 to 0.1 mg/kg; in experiment [1] (setting [7]) it was 0.1 to 0.32 mg/kg; in experiment [1] (setting [2]), 0.032 to 0.1 mg/kg; in experiment [1] (setting [3]), 0.032 to 0.1 mg/kg; in experiment [1] (setting [4]) it was 0.1 to 0.32 mg/kg.

As for `OC(CCCN1CC[C@@H]2[C@@H](C1)c1ccccc1N2c1ccccc1)c1ccc(F)cc1` (relative stereo), the ED50 in experiment [1] (setting [2]), in experiment [1] (setting [3]) and in experiment [1] (setting [4]) was 0.1 to 0.32 mg/kg in each case.

Take `O=C(CCCN1CC[C@@H]2[C@@H](C1)c1ccccc1N2c1ccccc1)c1ccc(F)cc1` (relative stereo): the ED50 in experiment [1] (setting [3]) fell in the range of 0.1 to 0.32 mg/kg.

`OC(CCCN1CC[C@@H]2[C@@H](C1)c1cc(F)ccc1N2c1ccc(F)cc1)c1ccccc1` (relative stereo): the ED50 in experiment [1] (setting [2]) was 0.1 to 0.32 mg/kg; in experiment [1] (setting [3]), 0.1 to 0.32 mg/kg; in experiment [1] (setting [4]), under 0.32 mg/kg.

For `O=C(CCCN1CC[C@@H]2[C@@H](C1)c1cc(F)ccc1N2c1ccc(F)cc1)c1ccc(F)cc1` (relative stereo), the ED50 in experiment [1] (setting [5]), in experiment [1] (setting [6]), in experiment [1] (setting [7]), in experiment [1] (setting [2]), in experiment [1] (setting [3]) and in experiment [1] (setting [4]) was under 1 mg/kg each time.

On to `c1ccc(CCCN2CC[C@@H]3[C@@H](C2)c2ccccc2N3c2ccccc2)cc1` (relative stereo) [X1=H, Y1=H, R=C6 H5 (CH2)3, reference compound], for which the ED50 in experiment [1] (setting [2]) is 3.2 to 10 mg/kg; in experiment [1] (setting [3]), 3.2 to 10 mg/kg; in experiment [1] (setting [4]) it was over 10 mg/kg.

On to `c1ccc(CN2CC[C@@H]3[C@@H](C2)c2ccccc2N3c2ccccc2)cc1` (relative stereo) [X1=H, Y1=H, R=C6 H5 CH2, dl-trans-2-benzyl-2,3,4,4a,5,9b-hexahydro-5-phenyl-1H-pyrido-[4,3-b]indole Hydrochloride, reference compound], for which the ED50 is about 10 mg/kg in experiment [1] (setting [2]), 3.2 to 32 mg/kg in experiment [1] (setting [3]) and over 3.2 mg/kg in experiment [1] (setting [4]).

On to `c1ccc(N2c3ccccc3[C@@H]3CNCC[C@H]32)cc1` (relative stereo) [X1=H, Y1=H, R=H, dl-trans-5-Phenyl-2,3,4,4a,5,9b-hexahydro-1H-pyrido[4,3-b]indole, reference compound], for which the ED50 in experiment [1] (setting [8]) was 3.2 to 32 mg/kg; in experiment [1] (setting [9]), over 3.2 mg/kg; in experiment [1] (sc, 24 h, read-out: ED50 (mg./kg.) 24 Hrs.) it was over 32 mg/kg.

For the compound `OC(CCCN1CC[C@@H]2[C@@H](C1)c1cc(F)ccc1N2c1ccc(F)cc1)c1ccc(F)cc1` (relative stereo) [drawing 38], the ED50 in experiment [1] (setting [5]) fell in the range of 0.032 to 0.1 mg/kg; in experiment [1] (setting [6]) it was 0.032 to 0.1 mg/kg; in experiment [1] (setting [7]), 0.032 to 0.1 mg/kg; in experiment [1] (ip, 48 h, Part B, 48 hrs, i.p., read-out: ED50 (mg./kg.) 48 Hrs.), 0.1 to 0.32 mg/kg; in experiment [1] (po, 1 h, Part B, 1 hr, p.o., read-out: ED50 (mg./kg.) 1 Hr.), 0.32 to 1 mg/kg; in experiment [1] (po, 5 h, Part B, 5 hrs, p.o., read-out: ED50 (mg./kg.) 5 Hrs.), 0.1 to 0.32 mg/kg. Moreover, the ED50 in experiment [1] (po, 24 h, Part B, 24 hrs, p.o., read-out: ED50 (mg./kg.) 24 Hrs.) lay in the range of 0.1 to 0.32 mg/kg; in experiment [1] (setting [2]), 0.032 to 0.1 mg/kg.

As for `OC(CCCN1CC[C@@H]2[C@@H](C1)c1cc(F)ccc1N2c1ccc(F)cc1)c1ccc(F)cc1` (relative stereo) [αβ, dl trans-8-fluoro-5-(p-fluorophenyl)-2-[4-hydroxy-4-(p-fluorophenyl)butyl]-2,3,4,4a,5,9b-hexahydro-1H-pyrido[4,3-b]indole], the concentration for half-maximal inhibition (IC50) at dopamine receptors stood at 23 nM.

As for `OC(CCCN1CC[C@@H]2[C@@H](C1)c1cc(F)ccc1N2c1ccc(F)cc1)c1ccc(F)cc1` (relative stereo) [αβγδ, dl-trans-8-Fluoro-5-(p-fluorophenyl)-2-[4-hydroxy-4-(p-fluorophenyl)butyl]-2,3,4,4a,5,9b-hexahydro-1H-pyrido[4,3-b]indole hydrochloride], the ED50 lay in the range of 0.032 to 0.1 mg/kg in experiment [1] (sc, 1 h, Part C, 1 hr, s.c. (method), read-out: ED50 (micrograms/kilograms) 1 Hr.); 0.032 to 0.1 mg/kg in experiment [1] (sc, 5 h, Part C, 5 hrs, s.c. (method), read-out: ED50 (micrograms/kilograms) 5 Hrs.); 0.032 to 0.1 mg/kg in experiment [1] (sc, 24 h, Part C, 24 hrs, s.c. (method), read-out: ED50 (micrograms/kilograms) 24 Hrs.). The IC50 at dopamine receptors was determined as 21 nM.

In the case of `OC(CCCN1CCC2C(C1)c1cc(F)ccc1N2c1ccc(F)cc1)c1ccc(F)cc1` (single isomer, unassigned) [α, 8-fluoro-5-(p-fluorophenyl)-2-[4-hydroxy-4-(p-fluorophenyl)butyl]-2,3,4,4a,5,9b-hexahydro-1H-pyrido[4,3-b]indole], the “ED50 (micrograms/kilograms) 1 Hr.” value in experiment [1] (Part C, 1 hr, s.c. (method)) was found to be 120 micrograms/kilograms. Besides, the “ED50 (micrograms/kilograms) 5 Hrs.” value in experiment [1] (Part C, 5 hrs, s.c. (method)) is given as 32-100 micrograms/kilograms. Besides, the “ED50 (micrograms/kilograms) 24 Hrs.” value in experiment [1] (Part C, 24 hrs, s.c. (method)) is reported as 32-100 micrograms/kilograms. The “ED50 (mg./kg.) 1 Hr.” value in experiment [1] (1 hr) stood at 0.023 mg/kg. Besides, the “ED50 (mg./kg.) 5 Hrs.” value in experiment [1] (5 hrs) was 0.014 mg/kg. The “ED50 (mg./kg.) 24 Hrs.” value in experiment [1] (24 hrs) was determined as 0.033 mg/kg. For the same compound, the “ED50 (mg./kg.) 72 Hrs.” value in experiment [1] was over 10 mg/kg.

Regarding `OC(CCCN1CCC2C(C1)c1cc(F)ccc1N2c1ccc(F)cc1)c1ccc(F)cc1` (single isomer, unassigned) [β, 8-fluoro-5-(p-fluorophenyl)-2-[4-hydroxy-4-(p-fluorophenyl)butyl]-2,3,4,4a,5,9b-hexahydro-1H-pyrido[4,3-b]indole hydrochloride], the IC50 on dopamine receptors was determined as 1800 nM.

For the compound `OC(CCCN1CCC2C(C1)c1cc(F)ccc1N2c1ccc(F)cc1)c1ccc(F)cc1` (single isomer, unassigned) [γ, 8-fluoro-5-(p-fluorophenyl)-2-[4-hydroxy-4-(p-fluorophenyl)butyl]-2,3,4,4a,5,9b-hexahydro-1H-pyrido[4,3-b]indole], the “ED50 (micrograms/kilograms) 1 Hr.” value in experiment [1] (Part C, 1 hr, s.c. (method)) is 180 micrograms/kilograms. Moreover, in experiment [1] (Part C, 5 hrs, s.c. (method)), the “ED50 (micrograms/kilograms) 5 Hrs.” value is on record as 32-100 micrograms/kilograms. Besides, in experiment [1] (Part C, 24 hrs, s.c. (method)), the “ED50 (micrograms/kilograms) 24 Hrs.” value is on record as 32-100 micrograms/kilograms. Besides, the “ED50 (mg./kg.) 1 Hr.” value in experiment [1] (1 hr) worked out at 0.178 mg/kg. Besides, in experiment [1] (5 hrs), the “ED50 (mg./kg.) 5 Hrs.” value was 0.045 mg/kg. Also, the “ED50 (mg./kg.) 24 Hrs.” value in experiment [1] (24 hrs) turned out to be 0.018 mg/kg. Further, in experiment [1] (48 hrs), the “ED50 (mg./kg.) 48 Hrs.” value is “ca. 1 mg./kg”. Also, the “ED50 (mg./kg.) 72 Hrs.” value in experiment [1] was over 1 mg/kg.

For `OC(CCCN1CCC2C(C1)c1cc(F)ccc1N2c1ccc(F)cc1)c1ccc(F)cc1` (single isomer, unassigned) [δ, 8-fluoro-5-(p-fluorophenyl)-2-[4-hydroxy-4-(p-fluorophenyl)butyl]-2,3,4,4a,5,9b-hexahydro-1H-pyrido[4,3-b]indole], the “ED50 (micrograms/kilograms) 1 Hr.” value in experiment [1] (Part C, 1 hr, s.c. (method)) was over 1000 micrograms/kilograms. In experiment [1] (Part C, 5 hrs, s.c. (method)), the “ED50 (micrograms/kilograms) 5 Hrs.” value is given as 560 micrograms/kilograms. Also, the “ED50 (micrograms/kilograms) 24 Hrs.” value in experiment [1] (Part C, 24 hrs, s.c. (method)) is listed as 320-1000 micrograms/kilograms. The “ED50 (mg./kg.) 1 Hr.” value in experiment [1] (1 hr) was over 10 mg/kg. Besides, the “ED50 (mg./kg.) 5 Hrs.” value in experiment [1] (5 hrs) was determined as 5.7 mg/kg. The “ED50 (mg./kg.) 24 Hrs.” value in experiment [1] (24 hrs) was over 10 mg/kg. Further, in experiment [1] (48 hrs), the “ED50 (mg./kg.) 48 Hrs.” value was over 10 mg/kg. Further, in experiment [1], the “ED50 (mg./kg.) 72 Hrs.” value is over 10 mg/kg.

Turning to `CCN1CCC2C(C1)c1ccccc1N2c1ccccc1` (stereo not shown) [X1=H, Y1=H, R=C2 H5, reference compound], the ED50 in experiment [1] (setting [8]) is about 1 mg/kg; in experiment [1] (setting [9]), over 3.2 mg/kg.
